Experiment: Antioxidant activity assessed as galvinoxyl free radical scavenging activity measured as second order rate constant by spectrophotometry
Type: functional

Oc1cc(O)c2c(c1)O[C@H](c1ccc(O)c(O)c1)[C@@H](O)C2
K (10'1mol/dm3/s): 3.87

— ChEMBL document CHEMBL3259589, “Synthesis and radical-scavenging activity of a dimethyl catechin analogue” (Bioorg Med Chem Lett, 2014)
